# Test results reported in patent US5670493A, “Aminophenylphosphonic acid compounds” (priority 1995, dated 1997).
# Counter-ions that a name gives are not always drawn.
# Columns and labels:
# [1] = test system: L1210, A431 and PAEC cells; experiment: Cytotoxicity (microculture tetrazolium assay), three cell lines; assay type: cell-based, murine (L1210), human (A431), pig (PAEC); conditions: in words
# Experimental: (§1) Three cell lines were used:
# (§2) 1 murine leukemia, L1210,
# 1 human epidermoid carcinoma, A431,
# (§3) 1 primary culture of pig aorta endothelial cells, PAEC.
# (§4) The cells are cultured in complete RPMI 1640 medium containing 10% of fetal calf serum, 2 mM glutamine, 50 units/ml of penicillin, 50 μg/ml of streptomycin and 10 mM HEPES (pH=7.4).
# (§5) The cells are distributed in microplates and exposed to the compounds of the invention. The cells are then incubated for two days (L1210), 3 days (PAEC) and 4 days (A431). The number of viable cells is then quantified by a colorimetric assay, the microculture tetrazolium assay (Carmichael J., DeGraff W. G., Gazdar A. F., Minna J. D. and Mitchell J. R., Evaluation of a tetrazolium-based semiautomated colorimetric assay: assessment of chemosensitivity testing, Cancer Res., 47, 936-942, (1987)).
# [2] = Cytotoxicity, PAEC (microculture tetrazolium assay); assay type: cell-based; conditions: pig, aorta endothelial cells paec, 3 days, read-out: Cytotoxicity PAEC IC50
# Experimental: as §1, §3, §4, §5
# [3] = Cytotoxicity, L1210 (microculture tetrazolium assay); assay type: cell-based, murine; conditions: mouse, l1210 cells; L1210, 2 days; read-out: Cytotoxicity L 1210 IC50
# Experimental: as §1, §2, §4, §5
# [4] = test system: chick embryo chorioallantoic membrane; experiment: Inhibition of the neovascularization of the chick embryo chorioallantoic membrane (CAM test); assay type: in vivo; conditions: for inhibition at 125 µM: Gallus gallus, % of eggs with avascular zone > 4 mm, 48 hours; for CAM test: collective results table, with spread, % of eggs displaying an avascular zone
# Experimental: This test is carried out with chick embryos as described previously (Crum R., Szabo S. and Folkman J., Science, (1985), 230, 1375-1378). Fertilized eggs (D0) are incubated at 37° C. An air pocket is created by withdrawing 1 ml of albumin (D3), and a window is then cut in the shell (D4) and the vitelline membrane is removed to expose the chorioallantoic membrane (CAM).
# The test products are solubilized in ethanol and applied to methylcellulose disks, which are dried and applied to CAM on day 6. Between 8 and 16 eggs are used per group. The zone located around the disk is then examined 48 hours later. Eggs displaying an avascular zone greater than 4 mm in diameter are counted, and the results are expressed as a percentage of eggs displaying an avascular zone. […]
# M 5076 sarcoma = experiment: Inhibition of tumor growth in vivo in M 5076 sarcoma in mice; conditions: for M 5076 sarcoma % ITG (inhibition of tumor growth): 13th day; for correlation between antitumor activity and inhibition of angiogenesis: M 5076 antitumor activity versus CAM test, in words
# Experimental: The malignant cells (10^6 /mouse) are inoculated subcutaneously on day 0 to form a tumor nodule. The mice are then distributed at random in treated/control groups (12 mice/group). […] The inhibition of tumor growth (ITG) is evaluated on the 13th day according to the following calculation: [formula]
# murine leukemia, L1210 = experiment: Cytotoxicity, L1210 (microculture tetrazolium assay); assay type: cell-based
# Experimental: as §1, §2, §4, §5
smiles,measurement,setting,value
"O=C(CCCCCCCCC(=O)Nc1ccc(P(=O)(O)O)cc1)Nc1ccc(P(=O)(O)O)cc1 [Example 1, 4,4'-[1,8-Octanediylbis(carbonylamino)]bis(phenylphosphonic acid)tetrasodium salt]",cytotoxic effect,[1],without a cytotoxic effect
same,CC50 at 72 h,[2],> 500 µM
same,CC50 at 48 h,[3],> 500 µM
same,inhibition at 125 µM,[4],64%
same,CAM test,[4],64 ± 6%
same,M 5076 sarcoma % ITG (inhibition of tumor growth),"M 5076 sarcoma; 60 mg/kg, intraperitoneal day 1 to day 12",61%
same,correlation between antitumor activity and inhibition of angiogenesis,M 5076 sarcoma,very good correlation
"O=C(CCCCCCCCCCC(=O)Nc1ccc(P(=O)(O)O)cc1)Nc1ccc(P(=O)(O)O)cc1 [Example 5, 4,4'-[1,10-Decanediylbis(carbonylamino)]bis(phenylphosphonic acid)tetrasodium salt]",inhibition at 125 µM,[4],68%
"O=C(CCCCCCCCCCCCC(=O)Nc1ccc(P(=O)(O)O)cc1)Nc1ccc(P(=O)(O)O)cc1 [Example 7, 4,4'-[1,12-Dodecanediylbis(carbonylamino)]bis(phenylphosphonic acid)]",inhibition at 125 µM,[4],56%
"O=C(CCCCCCCCCCCCCC(=O)Nc1ccc(P(=O)(O)O)cc1)Nc1ccc(P(=O)(O)O)cc1 [Example 8, 4,4'-[1,13-Tridecanediylbis(carbonylamino)]bis(phenylphosphonic acid)]",inhibition at 125 µM,[4],90%
"O=C(Nc1ccc(P(=O)(O)O)cc1)c1ccc(Cc2ccc(C(=O)Nc3ccc(P(=O)(O)O)cc3)cc2)cc1 [Example 11, 4,4'-[4,4'-Diphenylmethanediylbis(carbonylamino)]bis(phenylphosphonic acid)tetra-sodium salt]",cytotoxic effect,[1],without a cytotoxic effect
same,CC50 at 72 h,[2],429 µM
same,CC50 at 48 h,[3],> 500 µM
same,inhibition at 125 µM,[4],65%
same,CAM test,[4],65 ± 8%
same,M 5076 sarcoma % ITG (inhibition of tumor growth),"M 5076 sarcoma; 30 mg/kg, intraperitoneal day 1 to day 12",60%
same,correlation between antitumor activity and inhibition of angiogenesis,M 5076 sarcoma,very good correlation
"O=C(C=Cc1ccc(C=CC(=O)Nc2ccc(P(=O)(O)O)cc2)cc1)Nc1ccc(P(=O)(O)O)cc1 [Example 24, 4,4'-[1,4-Divinylenebenzenediylbis(carbonylamino)]bis(phenylphosphonic acid)]",inhibition at 125 µM,[4],82%
"O=C(CC[C@H]1CC[C@H](CCC(=O)Nc2ccc(P(=O)(O)O)cc2)CC1)Nc1ccc(P(=O)(O)O)cc1 [Example 32, 4,4'-[trans-1,4-Diethylenecyclohexanediylbis(carbonylamino)]bis(phenylphosphonic acid)]",inhibition at 125 µM,[4],80%
"O=C(C=Cc1ccc(C=CC(=O)Nc2ccc(P(=O)(O)O)cc2)s1)Nc1ccc(P(=O)(O)O)cc1 [Example 39, 4,4'-[2,5-Divinylenethiophenediylbis(carbonylamino)]bis(phenylphosphonic acid)]",inhibition at 125 µM,[4],75%
"O=C(C=Cc1ccc2cc(C=CC(=O)Nc3ccc(P(=O)(O)O)cc3)ccc2c1)Nc1ccc(P(=O)(O)O)cc1 [Example 40, 4,4'-[2,6-Divinylenenaphthalenediylbis(carbonylamino)]bis(phenylphosphonic acid)]",inhibition at 125 µM,[4],68%
"O=C(C=Cc1ccc(C=CC(=O)Nc2ccc(P(=O)(O)O)cc2)c2ccccc12)Nc1ccc(P(=O)(O)O)cc1 [Example 44, 4,4'-[1,4-Divinylenenaphthalenediylbis(carbonylamino)]bis(phenylphosphonic acid)]",inhibition at 125 µM,[4],80%
"O=C(C=C[C@H]1CC[C@H](C=CC(=O)Nc2ccc(P(=O)(O)O)cc2)CC1)Nc1ccc(P(=O)(O)O)cc1 [Example 45, 4,4'-[1,4-trans-Divinylenecyclohexanediylbis(carbonylamino)]bis(phenylphosphonic acid)]",inhibition at 125 µM,[4],89%
"O=C(/C=C/C=C/c1ccc(/C=C/C=C/C(=O)Nc2ccc(P(=O)(O)O)cc2)cc1)Nc1ccc(P(=O)(O)O)cc1 [Example 47, 4,4'-[1,4-Di(1,3-trans-trans-butadienylene)benzenediylbis(carbonylamino)]bis(phenylphosphonic acid)]",inhibition at 125 µM,[4],93%
"Cc1ccc(C(=O)Nc2ccc(S(=O)(=O)O)c3cc(S(=O)(=O)O)cc(S(=O)(=O)O)c23)cc1NC(=O)c1cccc(NC(=O)Nc2cccc(C(=O)Nc3cc(C(=O)Nc4ccc(S(=O)(=O)O)c5cc(S(=O)(=O)O)cc(S(=O)(=O)O)c45)ccc3C)c2)c1 [Suramin, suramin, reference compound]",CC50 at 72 h,[2],202 ± 10 µM
same,CC50 at 48 h,[3],131 ± 21 µM
same,cytotoxicity on the L 1210 leukemic line,"murine leukemia, L1210",relative cytotoxicity
same,inhibition at 125 µM,[4],20%
same,CAM test,[4],20 ± 3%
same,inhibition of neovascularization (CAM),[4]; in words,weak inhibition of neovascularization
same,M 5076 sarcoma % ITG (inhibition of tumor growth),"M 5076 sarcoma; 100 mg/kg, d 1,4,7 i.v.",67%
